Measured values from PubChem BioAssay (NCI).
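A five-concentration, 48-hour dose response in 96-well plates underlies each endpoint, interpolated linearly between surrounding concentrations. GI50: concentration for 50% inhibition of growth. The concentration for full growth arrest is given as TGI.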

Key:
Assay in all cases: growth of human tumour cells (NCI), 48 h
[1] = tested on: 786-0 renal
[2] = tested on: A549 NSCLC
[3] = tested on: ACHN renal
[4] = tested on: CCRF-CEM leukemia
[5] = tested on: COLO 205 colon
[6] = tested on: DLD-1 colon
[7] = tested on: DMS 273 small cell lung
[8] = tested on: EKVX NSCLC
[9] = tested on: HCC-2998 colon
[10] = tested on: HCT-116 colon
[11] = tested on: HCT-15 colon
[12] = tested on: HL-60(TB) leukemia
[13] = tested on: HOP-18 NSCLC
[14] = tested on: HOP-62 NSCLC
[15] = tested on: HOP-92 NSCLC
[16] = tested on: HT29 colon
[17] = tested on: IGROV1 ovarian
[18] = tested on: KM20L2 colon
[19] = tested on: LOX IMVI melanoma
[20] = tested on: LXFL 529 NSCLC
[21] = tested on: M19-MEL melanoma
[22] = tested on: MALME-3M melanoma
[23] = tested on: MOLT-4 leukemia
[24] = tested on: NCI-H226 lung
[25] = tested on: NCI-H23 lung
[26] = tested on: NCI-H460 lung
[27] = tested on: OVCAR-3 ovarian
[28] = tested on: OVCAR-5 ovarian
[29] = tested on: OVCAR-8 ovarian
[30] = tested on: RPMI-8226 leukemia
[31] = tested on: RXF 393 renal
[32] = tested on: RXF-631 renal
[33] = tested on: SF-268 CNS
[34] = tested on: SF-295 CNS
[35] = tested on: SF-539 CNS
[36] = tested on: SK-MEL-28 melanoma
[37] = tested on: SK-OV-3 ovarian
[38] = tested on: SN12C renal
[39] = tested on: SNB-19 CNS
[40] = tested on: SNB-75 CNS
[41] = tested on: SR leukemia
[42] = tested on: SW-620 colon
[43] = tested on: TK-10 renal
[44] = tested on: U251 CNS
[45] = tested on: UACC-257 melanoma
[46] = tested on: UACC-62 melanoma
[47] = tested on: UO-31 renal
[48] = tested on: XF 498 CNS
[49] = tested on: A498 renal
[50] = tested on: CAKI-1 renal
[51] = tested on: DMS 114 small cell lung
[52] = tested on: K-562 leukemia
[53] = tested on: KM12 colon
[54] = tested on: M14 melanoma
[55] = tested on: NCI-H522 lung
[56] = tested on: OVCAR-4 ovarian
[57] = tested on: SK-MEL-2 melanoma
[58] = tested on: SK-MEL-5 melanoma
[59] = tested on: SNB-78 CNS

Cc1cc2c(=O)c(C)n[nH]c2c(C#N)c1C
TGI [1]: > 100 µM | TGI [2]: > 100 µM | TGI [3]: > 100 µM | TGI [4]: > 100 µM | TGI [5]: > 100 µM | TGI [6]: > 100 µM | TGI [7]: > 100 µM | TGI [8]: > 100 µM | TGI [9]: > 100 µM | TGI [10]: > 100 µM | TGI [11]: > 100 µM | TGI [12]: > 100 µM | TGI [13]: > 100 µM | TGI [14]: > 100 µM | TGI [15]: > 100 µM | TGI [16]: > 100 µM | TGI [17]: > 100 µM | TGI [18]: > 100 µM | TGI [19]: > 100 µM | TGI [20]: > 100 µM | TGI [21]: > 100 µM | TGI [22]: > 100 µM | TGI [23]: > 100 µM | TGI [24]: > 100 µM | TGI [25]: > 100 µM | TGI [26]: > 100 µM | TGI [27]: > 100 µM | TGI [28]: > 100 µM | TGI [29]: > 100 µM | TGI [30]: > 100 µM | TGI [31]: > 100 µM | TGI [32]: > 100 µM | TGI [33]: > 100 µM | TGI [34]: > 100 µM | TGI [35]: > 100 µM | TGI [36]: > 100 µM | TGI [37]: > 100 µM | TGI [38]: > 100 µM | TGI [39]: > 100 µM | TGI [40]: > 100 µM | TGI [41]: > 100 µM | TGI [42]: > 100 µM | TGI [43]: > 100 µM | TGI [44]: > 100 µM | TGI [45]: > 100 µM | TGI [46]: > 100 µM | TGI [47]: > 100 µM | TGI [48]: > 100 µM

O=C(C=Nc1ccccc1S)c1ccco1
GI50 [1]: 16.6 µM | TGI [1]: 31.8 µM | GI50 [49]: > 100 µM | TGI [49]: > 100 µM | TGI [2]: 22.4 µM | GI50 [3]: > 100 µM | TGI [3]: > 100 µM | TGI [50]: 33.7 µM | TGI [4]: 10.2 µM | TGI [5]: 32.1 µM | TGI [6]: 28.1 µM | TGI [51]: 31 µM | TGI [7]: 31.7 µM | TGI [8]: 30.2 µM | GI50 [9]: 20.6 µM | TGI [9]: 36.6 µM | TGI [10]: 10.4 µM | TGI [11]: 27.4 µM | TGI [12]: 22.3 µM | TGI [13]: 37.1 µM | TGI [14]: 15.2 µM | TGI [16]: 37.7 µM | TGI [17]: 22.2 µM | TGI [52]: 45.8 µM | TGI [53]: 31.3 µM | TGI [18]: 34.7 µM | GI50 [20]: 4.57 µM | TGI [20]: 15.9 µM | GI50 [54]: 15 µM | TGI [54]: 28.7 µM | TGI [21]: 27 µM | TGI [22]: 35.1 µM | TGI [23]: 27.5 µM | TGI [25]: 15.6 µM | GI50 [26]: > 100 µM | TGI [26]: > 100 µM | TGI [55]: 28.8 µM | TGI [27]: 31.2 µM | TGI [56]: 26.4 µM | TGI [29]: 27.3 µM | TGI [30]: 46.1 µM | TGI [31]: 29 µM | GI50 [32]: 7.22 µM | TGI [32]: 25.7 µM | TGI [33]: 40.7 µM | TGI [34]: 18.8 µM | TGI [35]: 27.3 µM | TGI [57]: 33.1 µM | TGI [36]: 30.1 µM | TGI [58]: 31.7 µM | GI50 [37]: 3.2 µM | TGI [37]: 10.1 µM | TGI [38]: 21.5 µM | TGI [39]: 16.3 µM | GI50 [40]: 17.7 µM | TGI [40]: 31.9 µM | TGI [59]: 32.7 µM | TGI [42]: 32.8 µM | TGI [43]: 33.4 µM | TGI [44]: 18.7 µM | TGI [45]: 32.1 µM | TGI [46]: 29.5 µM | TGI [47]: 6.77 µM
